We go through 2 compounds from patent US12011442B2, “Solid-state forms of Abemaciclib, their use and preparation” (MACFARLAN SMITH LIMITED, priority 2018, dated 2024).

Format in all cases: physicochemical
Data set [1] can be described thus: Solid-state stability of the crystalline solvate (observation). The conditions noted are these: desolvates on exposure to air. As to the method: A variable methanol solvate of ABC is produced by dissolving ABC in warm (55° C.) methanol (about 200 mg/mL) and then cooling (−5° C.) to force precipitation of a white powder. The resulting powder is examined by XRPD while still wet (FIG. 1, top pattern). Single crystals are grown by slow evaporation of methanol into an antisolvent (preferably ethyl acetate) or by slowly cooling a saturated solution from 50° C. to 0° C. over the course of several hours, and not exposed to air, to obviate evaporation of the solvate and the collapse of the crystalline lattice. Single crystal X-ray diffraction (SCXRD) data is undertaken at 100° K to improve diffraction quality as well as prevent desolvation. […] The single crystal is determined to be Form I of variable methanol solvate of ABC (FIG. 2) having about 2.5-3 molecules of methanol, preferably about 2.75 molecules of methanol. Form I of variable methanol solvate of ABC is unstable.

Data set [2] can be described thus: Dynamic vapor sorption (DVS) / sorption isotherm.
Data set [3] in a line: Thermogravimetric analysis (TGA), onset of decomposition. The conditions noted are these: heating rate 10.0° C./min, nitrogen; FIG. 6. The method, then:
Analysis—TGA (Thermo Gravimetric Analysis) TGA measurements are recorded using TA Q500 instrument. The samples are weighed in aluminum pans. TGA investigations are performed at a heating rate of 10.0° C./min over a temperature range of 30-350° C., purging with nitrogen at a flow rate of 60 mL/min.

Turning to `CCN1CCN(Cc2ccc(Nc3ncc(F)c(-c4cc(F)c5nc(C)n(C(C)C)c5c4)n3)nc2)CC1`, in data set [1], the “stability of the solid-state form” value is “unstable”.

In the case of `CCN1CCN(Cc2ccc(Nc3ncc(F)c(-c4cc(F)c5nc(C)n(C(C)C)c5c4)n3)nc2)CC1` [Form II anhydrous ABC], in data set [2] (between 0-90% relative humidity (RH), FIG. 7), the “H2O absorbed by weight (DVS)” value was “about 8%”. The “drop in weight during desorption” value in data set [2] (desorption at 20% RH, consistent with loss of a molecule of water) was “about 4%”. Besides, the “H2O lost in one desorption step (sorption isotherm)” value in data set [2] (desorption between 30-20% RH, FIG. 8) was found to be 4%. In data set [2] (humidity sorption/desorption), the “transformation from Form II anhydrous ABC to Form III of hydrate of ABC” value is recorded as “reversible”. Also, in data set [3], the “onset of decomposition (TGA)” value was “about 320 °C”.
